Measurements from US5962415A, “Compositions comprising a peptide inhibitor of nuclear protein translocation and an immunosuppressant and methods of use thereof” (Bristol-Myers Squibb Co., priority 1998, dated 1999).

How the values were obtained:
[1] = tested on: Splenic T-cells from BALB/c mice; experiment: Mouse splenic T-cell proliferation ([3H]-thymidine); type: cell-based; conditions: 0.5 or 2.0 μM, FIG. 16
Method: Splenic T-cells from BALB/c mice were isolated by glass wool chromatography and treated with either 0.5 or 2.0 μM peptide in 96 well plates for 2 hours followed by activation with either anti-CD3 alone ([…]), PMA alone (1 ng/ml), anti-CD3 plus anti-CD28 ([…] each) or anti-CD28 plus PMA ([…] and 1 ng/ml, respectively). Plates were coated with antibody 24 hours prior to activation. Proliferation was determined after 72 hours by pulsing for 8 hours with [^3 H]-thymidine, and determining radioactivity incorporated into DNA.

[2] = tested on: 70Z/3 murine leukemia pre-B cells; experiment: LPS-stimulated surface antigen expression (κ Ig light chain, IL-2 receptor, CD45) in 70Z/3 cells; type: cell-based; conditions: dose-response data, FIG. 1B
Method: Expression of κ Ig, CD45, CD40, and the interleukin-2 receptor was assayed using standard enzyme-linked immunosorbent assays ("ELISAs") (see, Coligan et al. (eds.) (1991) Current Protocols in Immunology, Wiley & Sons, p. 2.10 or by FACS staining to measure cell-surface markers as described in Raff (1970) Immunology 19:637). Antibodies form cell surface markers were obtained from Pharmingen Co.
The effect of the SV40MEM polypeptide was compared with two additional polypeptides, […] (SEQ ID NO:2) (the "HIV-1MEM" polypeptide), which is composed of the membrane translocation domain of FGF flanked by the NLS from the HIV-1 matrix protein and […] (SEQ ID NO:3) (the "C-MYCMEM" polypeptide), which contains the NLS from the human c-myc oncoprotein (Chelsky et al. (1989), supra, and Dang et al. (1988), supra) using murine 70Z/3 pre-B cells.
Murine 70Z/3 cells (ATCC TlD-158) are a model cell line for analyzing the effects of compounds on B-cell differentiation. In response to S. typhosa LPS (Difco) or γ-interferon, these cells differentiate from surface κ immunoglobulin negative to κ Ig positive.
[…] of: (1) a peptide containing only the FGF signal sequence AAVALLPAVLLALLAP (SEQ ID NO:4) (the "MEM" peptide); (2) a polypeptide having the FGF signal sequence and the NLS of NF-κB p50 on the carboxy terminus of the signal sequence, namely, the NF-κBMEM polypeptide; (3) the SV40MEM polypeptide comprised of L-amino acids; or (4) the SV40MEM polypeptide comprised of D-amino acids. The cells were then incubated with LPS as described in Example 2 and assayed for expression of κ light chain expression.

[3] = tested on: BALB/c mice immunized with KLH; experiment: Anti-hemocyanin (KLH) response in mice; type: in vivo; conditions: 5 mg/kg day 0 plus 5 doses every other day, serum day 14, FIG. 12
Method: Female BALB/c mice (8 weeks of age) were immunized by intraperitoneal injection of 25 μg keyhole limpet (Megathura crenulata) hemocyanin ("KLH") (Pacific Bio-Marine Laboratories, Venice, Calif.) without adjuvant on day 0. Mice were divided into groups of five and inhibitory peptides C-MYCMEM and BMS-205820 ([…] (SEQ ID NO:24)), which is identical to the SV40MEM polypeptide with the exception that the polypeptide lacks the C-terminal cysteine, were administered on day 0 at 5 mg/kg, followed by 5 subsequent doses of the same concentration every other day. Control mice were treated with a single 200-μg dose of Chimeric L6 antibody ("Chi L6"). After 14 days, the mice were bled from the orbital sinus and the level of anti-KLH antibodies were measured in the serum by ELISA as described in Example 11.

[4] = tested on: CD14; experiment: LPS binding to CD14 (plate assay with soluble CD14 Ig); conditions: E. coli AO16 LPS, 2 hours at 4° C., FIG. 14
Method: 96-well plates were coated with goat-anti human Ig, soluble CD-1 4 Ig was added, and the plates were incubated overnight at 4° C. The BMS polypeptide, the C-MYCMEM polypeptide, an SV40 NLS polypeptide containing a single SV40 large T-antigen NLS, a c-myc NLS without a translocation sequence (AKRVKL (SEQ ID NO:6)), a control non-NLS polypeptide, 377G, or PBS, were added to the plates and the plates were incubated for 5 min. E. coli AO16 LPS was then added to the plates and the plates were incubated for 2 hours at 4° C. The plates were washed and LPS was detected using 0.5 μg/ml mouse anti-E. coli LPS, followed by goat anti-mouse horseradish peroxidase.

AKRVKLAAVALLPAVLLALLAKRVKLC [C-MYCMEM, contains the NLS from the human c-myc oncoprotein]
T cell proliferation ([1]; stimulated with PMA + anti-CD28, 2 hours pretreatment): inhibited | T cell proliferation ([1]; stimulated with anti-CD3 + anti-CD28, 2 hours pretreatment): augmentation of proliferation | efficacy at inhibiting κ Ig light chain production (comparison of three polypeptides) [2]: approximately equally efficacious | potency at inhibiting κ Ig light chain production compared with SV40MEM [2]: not as potent | specific anti-KLH response [3]: inhibited | binding of LPS to CD14 [4]: block it from binding CD14
